Test results reported in patent US8354106B2, “Antibodies against HMGB1 and fragments thereof” (The Feinstein Institute for Medical Research, priority 2005, dated 2013).
“Also recorded” adds a separate entry of the source. Where no end group is shown, it is not given here. The star is where a group is joined. Biotin = O=C1N[C@H]2[C@H](CS[C@H]2CCCCC(=O)*)N1

How the values were obtained:
[1] = system: human immature monocyte-derived dendritic cells (DCs); assay: Cytokine/chemokine secretion by human immature monocyte-derived dendritic cells (ELISA); assay type: cell-based; set-up: key to TNFα secretion / IL-18 secretion / IL-8 secretion / IL-10 secretion / IL-6 secretion / IL-12 secretion: “+” indicates an increase; “−” indicates no change relative to untreated cells (medium); conditions: for IL-6 secretion / IL-8 secretion / IL-10 secretion / IL-12 secretion / IL-18 secretion / TNFα secretion: HUMAN DC, ELISA 48 h after exposure, relative to untreated cells; for secretion of IL-6 by DCs: FIGS. 1A, 1B
Description: Peripheral blood mononuclear cells (PBMCs) were isolated from the blood of normal volunteers (Long Island Blood Services, Melville, N.Y.) over a Ficoll-Hypaque (Amersham Biosciences, Uppsala, Sweden) density gradient. CD14^+ monocytes were isolated from PBMCs by positive selection using anti-CD14 beads (Miltenyi Biotech., Auburn, Calif.), following the manufacturer's instructions. To generate DCs, CD14^+ cells were cultured in RPMI 1640 medium supplemented with 2 mM L-glutamine (GIBCO-BRL Life Technologies, Grand Island, N.Y.), 50 μM 2-mercaptoethanol (Sigma, St. Louis, Mo.), 10 mM HEPES (GIBCO-BRL), penicillin (100 U/ml), streptomycin (100 μg/ml) (GIBCO-BRL), and 5% human AB serum (Gemini Bio-Products, Woodland, Calif.). Cultures were maintained for 7 days in 6-well trays (3×10^6 cells/well) supplemented with 1000 U GM-CSF per ml (Immunex, Seattle, Wash.) and 200 U IL-4 per ml (R&D Systems, Minneapolis, Minn.) at days 0, 2, 4 and 6.
(§1) Recombinant HMGB1-B box domain (HMGB1-Bx) was expressed in Escherichia coli and purified as described by Li, et al. (Mol. Med. 9:37-45; J. Immunol. Methods 289:211-223 (2004)). Purified HMGB1-Bx contained trace amounts of LPS (19 pg LPS/μg HMGB1-Bx) as measured by the chromogenic Limulus amebocyte lysate assay (BioWhittacker Inc, Walkersville, Md.). All experiments using HMGB1-Bx, as well as the HMGB1 peptides, were performed in the presence of polymyxin B (200 U/ml) to neutralize the amount of contaminating LPS in the HMGB1-Bx and peptide preparations. We have previously shown that the DC stimulatory capacity of HMGB1-Bx requires an intact tertiary structure and is not due to contaminating amounts of LPS, as trypsinization abolished HMGB1-Bx activity (Messmer, et al., J. Immunol. 173: 307-313 (2004); the entire teachings of which are incorporated herein by reference).
(§2) Secreted cytokine/chemokine levels were measured by ELISA (Pierce Boston Technology Center, SearchLight™ Proteome Arrays Multiplex Sample Testing Services, Woburn, Mass.) 48 h after addition of the various peptides. Polymyxin B (200 U/ml) was added to all cultures, except those containing LPS, before the stimuli were added. Immature monocyte-derived human dendritic cells (DCs) and immature bone-marrow derived murine dendritic cells (BM-DCs) were cultured either in the presence of HMGB1 peptides (200 μg/ml), whose sequences map to different regions of the HMGB1 protein (see Table 1), the entire HMGB1 B-box domain (HMGB1-Bx) (50 μg/ml), or LPS (100 ng/ml). Untreated cells (medium) were tested as a control. Each peptide was named according to the corresponding position of its first amino acid within the full-length HMGB1 sequence. All peptides were N-terminally biotinylated except “Hp-106 (non bio)”.

[2] = system: murine bone marrow-derived dendritic cells (BM-DCs); assay: Cytokine/chemokine secretion by murine bone marrow-derived dendritic cells (ELISA); assay type: cell-based, mouse; set-up: key to TNFα secretion / IL-18 secretion / IL-8 secretion / IL-10 secretion / IL-2 secretion / IL-1β secretion / IL-5 secretion / IL-6 secretion / IL-12 secretion: “+” indicates an increase; “−” indicates no change relative to untreated cells (medium); conditions: for IL-1β secretion / IL-2 secretion / IL-5 secretion / IL-6 secretion / IL-8 secretion / IL-10 secretion / IL-12 secretion / IL-18 secretion / TNFα secretion: MURINE DC, ELISA 48 h after exposure, relative to untreated cells; for IL-1β secretion / IL-2 secretion / IL-5 secretion / IL-6 secretion / IL-8 secretion / IL-10 secretion / IL-12 secretion / IL-18 secretion / TNFα secretion / secretion of IL-1β / secretion of IL-2 / secretion of IL-8 / secretion of IL-5 / secretion of IL-18 / secretion of TNF-α / secretion of IL-12 (p70): peptides 200 μg/ml, HMGB1-Bx 50 μg/ml; for cytokine secretion by murine BM-DCs / secretion of IL-1β / secretion of IL-2 / secretion of IL-8 / secretion of IL-5 / secretion of IL-18 / secretion of TNF-α / secretion of IL-12 (p70): murine BM-DCs; for secretion of IL-1β: FIG. 2A; for secretion of IL-1β / secretion of IL-2 / secretion of IL-8 / secretion of IL-5 / secretion of IL-18 / secretion of TNF-α / secretion of IL-12 (p70): 48 h; for secretion of IL-2: FIG. 2C; for secretion of IL-8: FIG. 2D; for secretion of IL-5: FIG. 2E; for secretion of IL-18: FIG. 2F; for secretion of TNF-α: FIG. 2G; for secretion of IL-12 (p70): FIGS. 2B, 2H
Description: Bone marrow-derived DCs (BM-DCs) were generated using modifications of the original method described by Inaba, et al. (J. Exp. Med. 1 76:1693-1702 (1992)). In brief, bone marrow suspensions were incubated with red cell lysis buffer (PUREGENE™ RBC Lysis Solution, Gentra Systems, Minneapolis, Minn.) to remove red blood cells. After washing in media, lymphocytes and Ia-positive cells were killed with a cocktail of monoclonal antibodies (mAbs) and rabbit complement for 60 min at 37° C. The mAbs that were used were GK1.5 anti-CD4, TIB211 anti-CD8, TIB 120 anti-Ia, and TIB 146 anti B220 (these mAbs were kindly provided by Dr. Ralph Steinman). The cells were subsequently cultured in media containing 5% FCS and 10 ng/ml recombinant mouse GM-CSF (R&D Systems, Minneapolis, Minn.) for 7 days. For some experiments, the cells were further purified at day 7 using CD11c^+-microbeads (Miltenyi Biotech., Auburn, Calif.), according to the manufacturer's instructions.
as §1, §2

[3] = peptides 200 μg/ml, HMGB1-Bx 50 μg/ml
[4] = human DCs, peptides 200 μg/ml, 48 h

| Sequence | IL-6 secretion [1, 3] | IL-8 secretion [1, 3] | IL-10 secretion [1, 3] | IL-12 secretion [1, 3] | IL-18 secretion [1, 3] | TNFα secretion [1, 3] | cytokine secretion by human DCs ([1]; human DCs) | secretion of IL-6 by DCs [1, 4] | IL-1β secretion [2] | IL-2 secretion [2] | IL-5 secretion [2] | IL-6 secretion [2] | IL-8 secretion [2] | IL-10 secretion [2] | IL-12 secretion [2] | IL-18 secretion [2] | TNFα secretion [2] | cytokine secretion by murine BM-DCs [2] | secretion of IL-1β [2] | secretion of IL-2 [2] | other results |
| --- | --- | --- | --- | --- | --- | --- | --- | --- | --- | --- | --- | --- | --- | --- | --- | --- | --- | --- | --- | --- | --- |
| CSEYRPKIKGEHPGLSIG [Hp-106] (Biotin-CSEYRPKIKGEHPGLSIG; listed as Homo sapiens) | + | − | − | + | + | + | induced cytokine secretion by human DCs | induced secretion | + | + | + | − | + | − | + | + | + | induced cytokine secretion by murine BM-DCs; also recorded: high levels of cytokine secretion | enhanced secretion | enhanced secretion | secretion of IL-12 (p70) ([1]; human DCs, FIG. 1C, peptides 200 μg/ml, 48 h): induced secretion; secretion of TNF-α ([1]; human DCs, FIG. 1D, peptides 200 μg/ml, 48 h): induced secretion; secretion of IL-18 ([1]; human DCs, FIG. 1E, peptides 200 μg/ml, HMGB1-Bx 50 μg/ml, 48 h): induced secretion; secretion of IL-8 ([1]; human DCs, FIG. 1F, peptides 200 μg/ml, HMGB1-Bx 50 μg/ml, 48 h): did not induce secretion; secretion of IL-8 [2]: enhanced secretion; secretion of IL-5 [2]: enhanced secretion; secretion of IL-18 [2]: enhanced secretion; secretion of TNF-α [2]: enhanced secretion; secretion of IL-12 (p70) [2]: enhanced secretion |
| YAFFVQTCREEHIKKHPD [Hp-16] | − | − | − | − | − | − | did not stimulate cytokine secretion and not | did not induce IL-6 secretion | + | + | + | − | − | − | + | + | − | enhanced cytokine secretion; also recorded: stimulated cytokine secretion | enhanced secretion | enhanced secretion | secretion of IL-8 [2]: only Hp-106 enhanced secretion; secretion of IL-5 [2]: enhanced secretion; secretion of IL-18 [2]: enhanced secretion; secretion of TNF-α [2]: only Hp-106 enhanced secretion; secretion of IL-12 (p70) [2]: enhanced secretion |
